{"source": "patent US20060083830A1", "about": "“Polylysine-containing food additive and acidic adjuvant” (priority 2004, published 2006)", "key": {"many bacteria": {"tested_on": "many bacteria", "settings": "Shima et al., 1984; Hiraki, 2000; cited from earlier work"}, "Listeria monocytogenes": {"tested_on": "Listeria monocytogenes", "experiment": "L. monocytogenes on cooked ground turkey balls blended with ε-polylysine, vacuum packaged, stored at 10° C., CFU determination", "format": "cell-based", "settings": "for Log Reduction: vs control Group A", "protocol": "Six groups of 20 g ground uncooked turkey balls were prepared, with 27 balls prepared per group. […] Groups B-F were blended with varying amounts of ε-polylysine (“ε-PL”). Final concentrations of ε-polylysine within the turkey balls were:\nAfter preparation, all meatballs were placed on baking sheets and baked in a conventional oven at 350° F. for 20 minutes. After baking, the meatballs were packaged separately and stored at 4° C.\nThe mixture was further diluted 1:10,000 times with sterile saline to produce a suspension for use.\n20 microliters of the Listeria monocytogenes suspension was inoculated onto the exterior of each turkey ball. Turkey balls were incubated at room temperature for 30 min post-inoculation to allow bacteria to attach. Turkey balls were individually vacuum packaged and stored at 10° C.\nThe microbiological assay was performed after 3 hours, 24 hours, 1 week, 2 weeks, 3 weeks, 4 weeks, 5 weeks, 7 weeks, and 8 weeks. After each designated time period had passed, three bags from each group of meat balls were unpacked, transferred to a stomacher bag along with 20 ml of sterile 0.1% peptone water. Each meatball was hand crushed and stomached at high speed for 2 minutes. […] The letter “{overscore (A)}” denotes average."}}, "note": "“And” between values parts separate entries of the source, which are not always exact repeats. Equal values may be shown once.", "data": [{"substance": "poly(imino(2-amino-1-oxo-1,6-hexanediyl)) [ε-PL]", "values": [{"measurement": "minimum inhibitory concentration (MIC) for the growth of many bacteria", "setting": "many bacteria", "result": "below 100 μg mL^−1"}, {"measurement": "CFU/g", "setting": "Listeria monocytogenes; 1000 ppm ε-PL, after 1 week", "result": "5.35E+06 CFU/g and 3.75E+06 CFU/g and 4.05E+06 CFU/g"}, {"measurement": "average Log Value", "setting": "Listeria monocytogenes; 1000 ppm ε-PL, after 1 week", "result": 6.64}, {"measurement": "average of CFU/g", "setting": "Listeria monocytogenes; 1000 ppm ε-PL, after 1 week", "result": "4.38E+06", "unit": "CFU/g"}, {"measurement": "Log Reduction", "setting": "Listeria monocytogenes; 1000 ppm ε-PL, after 1 week", "result": 1.64}, {"measurement": "average Log Value", "setting": "Listeria monocytogenes; 1000 ppm ε-PL, after 2 weeks", "result": 7.61}, {"measurement": "average of CFU/g", "setting": "Listeria monocytogenes; 1000 ppm ε-PL, after 2 weeks", "result": "4.09E+07", "unit": "CFU/g"}, {"measurement": "Log Reduction", "setting": "Listeria monocytogenes; 1000 ppm ε-PL, after 2 weeks", "result": 0.68}, {"measurement": "average Log Value", "setting": "Listeria monocytogenes; 1000 ppm ε-PL, after 3 weeks", "result": 6.73}, {"measurement": "average of CFU/g", "setting": "Listeria monocytogenes; 1000 ppm ε-PL, after 3 weeks", "result": "5.24E+06", "unit": "CFU/g"}, {"measurement": "Log Reduction", "setting": "Listeria monocytogenes; 1000 ppm ε-PL, after 3 weeks", "result": 1.66}, {"measurement": "average Log Value", "setting": "Listeria monocytogenes; 1000 ppm ε-PL, after 4 weeks", "result": 7.73}, {"measurement": "average of CFU/g", "setting": "Listeria monocytogenes; 1000 ppm ε-PL, after 4 weeks", "result": "5.42E+07", "unit": "CFU/g"}, {"measurement": "Log Reduction", "setting": "Listeria monocytogenes; 1000 ppm ε-PL, after 4 weeks", "result": 0.74}, {"measurement": "average Log Value", "setting": "Listeria monocytogenes; 1000 ppm ε-PL, after 5 weeks", "result": 7.98}, {"measurement": "average of CFU/g", "setting": "Listeria monocytogenes; 1000 ppm ε-PL, after 5 weeks", "result": "9.64E+07", "unit": "CFU/g"}, {"measurement": "Log Reduction", "setting": "Listeria monocytogenes; 1000 ppm ε-PL, after 5 weeks", "result": 0.44}, {"measurement": "average Log Value", "setting": "Listeria monocytogenes; 1000 ppm ε-PL, after 7 weeks", "result": 7.80}, {"measurement": "average of CFU/g", "setting": "Listeria monocytogenes; 1000 ppm ε-PL, after 7 weeks", "result": "6.33E+07", "unit": "CFU/g"}, {"measurement": "Log Reduction", "setting": "Listeria monocytogenes; 1000 ppm ε-PL, after 7 weeks", "result": 0.62}, {"measurement": "average Log Value", "setting": "Listeria monocytogenes; 1000 ppm ε-PL, after 8 weeks", "result": 7.66}, {"measurement": "average of CFU/g", "setting": "Listeria monocytogenes; 1000 ppm ε-PL, after 8 weeks", "result": "4.53E+07", "unit": "CFU/g"}, {"measurement": "Log Reduction", "setting": "Listeria monocytogenes; 1000 ppm ε-PL, after 8 weeks", "result": 0.68}, {"measurement": "CFU/g", "setting": "Listeria monocytogenes; 1000 ppm ε-PL, after 3 hours", "result": "2.34E+02 CFU/g and 1.54E+02 CFU/g and 1.56E+02 CFU/g"}, {"measurement": "average Log Value", "setting": "Listeria monocytogenes; 1000 ppm ε-PL, after 3 hours", "result": 2.26}, {"measurement": "average of CFU/g", "setting": "Listeria monocytogenes; 1000 ppm ε-PL, after 3 hours", "result": "1.81E+02", "unit": "CFU/g"}, {"measurement": "Log Reduction", "setting": "Listeria monocytogenes; 1000 ppm ε-PL, after 3 hours", "result": 0.53}, {"measurement": "average Log Value", "setting": "Listeria monocytogenes; 1000 ppm ε-PL, after 24 hours", "result": 3.25}, {"measurement": "average of CFU/g", "setting": "Listeria monocytogenes; 1000 ppm ε-PL, after 24 hours", "result": "1.77E+03", "unit": "CFU/g"}, {"measurement": "Log Reduction", "setting": "Listeria monocytogenes; 1000 ppm ε-PL, after 24 hours", "result": ">0.48"}, {"measurement": "average Log Value", "setting": "Listeria monocytogenes; 2000 ppm ε-PL, after 1 week", "result": 4.74}, {"measurement": "average of CFU/g", "setting": "Listeria monocytogenes; 2000 ppm ε-PL, after 1 week", "result": "5.50E+04", "unit": "CFU/g"}, {"measurement": "Log Reduction", "setting": "Listeria monocytogenes; 2000 ppm ε-PL, after 1 week", "result": 3.54}, {"measurement": "average Log Value", "setting": "Listeria monocytogenes; 2000 ppm ε-PL, after 2 weeks", "result": 4.98}, {"measurement": "average of CFU/g", "setting": "Listeria monocytogenes; 2000 ppm ε-PL, after 2 weeks", "result": "9.57E+04", "unit": "CFU/g"}, {"measurement": "Log Reduction", "setting": "Listeria monocytogenes; 2000 ppm ε-PL, after 2 weeks", "result": 3.31}, {"measurement": "average Log Value", "setting": "Listeria monocytogenes; 2000 ppm ε-PL, after 3 weeks", "result": 4.68}, {"measurement": "average of CFU/g", "setting": "Listeria monocytogenes; 2000 ppm ε-PL, after 3 weeks", "result": "4.73E+04", "unit": "CFU/g"}, {"measurement": "Log Reduction", "setting": "Listeria monocytogenes; 2000 ppm ε-PL, after 3 weeks", "result": 3.72}, {"measurement": "average Log Value", "setting": "Listeria monocytogenes; 2000 ppm ε-PL, after 4 weeks", "result": ">6.44"}, {"measurement": "average of CFU/g", "setting": "Listeria monocytogenes; 2000 ppm ε-PL, after 4 weeks", "result": ">2.76E+06", "unit": "CFU/g"}, {"measurement": "Log Reduction", "setting": "Listeria monocytogenes; 2000 ppm ε-PL, after 4 weeks", "result": "<2.03"}, {"measurement": "average Log Value", "setting": "Listeria monocytogenes; 2000 ppm ε-PL, after 5 weeks", "result": 5.90}, {"measurement": "average of CFU/g", "setting": "Listeria monocytogenes; 2000 ppm ε-PL, after 5 weeks", "result": "7.91E+05", "unit": "CFU/g"}, {"measurement": "Log Reduction", "setting": "Listeria monocytogenes; 2000 ppm ε-PL, after 5 weeks", "result": 2.53}, {"measurement": "average Log Value", "setting": "Listeria monocytogenes; 2000 ppm ε-PL, after 7 weeks", "result": 6.66}, {"measurement": "average of CFU/g", "setting": "Listeria monocytogenes; 2000 ppm ε-PL, after 7 weeks", "result": "4.53E+06", "unit": "CFU/g"}, {"measurement": "Log Reduction", "setting": "Listeria monocytogenes; 2000 ppm ε-PL, after 7 weeks", "result": 1.77}, {"measurement": "average Log Value", "setting": "Listeria monocytogenes; 2000 ppm ε-PL, after 8 weeks", "result": 6.19}, {"measurement": "average of CFU/g", "setting": "Listeria monocytogenes; 2000 ppm ε-PL, after 8 weeks", "result": "1.54E+06", "unit": "CFU/g"}, {"measurement": "Log Reduction", "setting": "Listeria monocytogenes; 2000 ppm ε-PL, after 8 weeks", "result": 2.15}, {"measurement": "CFU/g", "setting": "Listeria monocytogenes; 2000 ppm ε-PL, after 3 hours", "result": "1.94E+02 CFU/g and 1.96E+02 CFU/g and 1.50E+02 CFU/g"}, {"measurement": "average Log Value", "setting": "Listeria monocytogenes; 2000 ppm ε-PL, after 3 hours", "result": 2.26}, {"measurement": "average of CFU/g", "setting": "Listeria monocytogenes; 2000 ppm ε-PL, after 3 hours", "result": "1.80E+02", "unit": "CFU/g"}, {"measurement": "Log Reduction", "setting": "Listeria monocytogenes; 2000 ppm ε-PL, after 3 hours", "result": 0.53}, {"measurement": "CFU/g", "setting": "Listeria monocytogenes; 2000 ppm ε-PL, after 24 hours", "result": "1.98E+02 CFU/g and 2.64E+02 CFU/g and 2.14E+02 CFU/g"}, {"measurement": "average Log Value", "setting": "Listeria monocytogenes; 2000 ppm ε-PL, after 24 hours", "result": 2.35}, {"measurement": "average of CFU/g", "setting": "Listeria monocytogenes; 2000 ppm ε-PL, after 24 hours", "result": "2.25E+02", "unit": "CFU/g"}, {"measurement": "Log Reduction", "setting": "Listeria monocytogenes; 2000 ppm ε-PL, after 24 hours", "result": ">1.37"}, {"measurement": "post-lethality effect", "setting": "Listeria monocytogenes; 3000 ppm", "result": "> 1", "unit": "log"}, {"measurement": "average Log Value", "setting": "Listeria monocytogenes; 3000 ppm ε-PL, after 1 week", "result": 1.00}, {"measurement": "average of CFU/g", "setting": "Listeria monocytogenes; 3000 ppm ε-PL, after 1 week", "result": "1.00E+01", "unit": "CFU/g"}, {"measurement": "Log Reduction", "setting": "Listeria monocytogenes; 3000 ppm ε-PL, after 1 week", "result": 7.28}, {"measurement": "average Log Value", "setting": "Listeria monocytogenes; 3000 ppm ε-PL, after 2 weeks", "result": 1.44}, {"measurement": "average of CFU/g", "setting": "Listeria monocytogenes; 3000 ppm ε-PL, after 2 weeks", "result": "2.73E+01", "unit": "CFU/g"}, {"measurement": "Log Reduction", "setting": "Listeria monocytogenes; 3000 ppm ε-PL, after 2 weeks", "result": 6.85}, {"measurement": "average Log Value", "setting": "Listeria monocytogenes; 3000 ppm ε-PL, after 3 weeks", "result": "<1.67"}, {"measurement": "average of CFU/g", "setting": "Listeria monocytogenes; 3000 ppm ε-PL, after 3 weeks", "result": "<4.67E+01", "unit": "CFU/g"}, {"measurement": "Log Reduction", "setting": "Listeria monocytogenes; 3000 ppm ε-PL, after 3 weeks", "result": ">6.72"}, {"measurement": "average Log Value", "setting": "Listeria monocytogenes; 3000 ppm ε-PL, after 4 weeks", "result": "<0.43"}, {"measurement": "average of CFU/g", "setting": "Listeria monocytogenes; 3000 ppm ε-PL, after 4 weeks", "result": "<2.67E+00", "unit": "CFU/g"}, {"measurement": "Log Reduction", "setting": "Listeria monocytogenes; 3000 ppm ε-PL, after 4 weeks", "result": ">8.05"}, {"measurement": "CFU/g", "setting": "Listeria monocytogenes; 3000 ppm ε-PL, after 5 weeks", "result": "<2.00E+00", "unit": "CFU/g"}, {"measurement": "average Log Value", "setting": "Listeria monocytogenes; 3000 ppm ε-PL, after 5 weeks", "result": "<0.30"}, {"measurement": "average of CFU/g", "setting": "Listeria monocytogenes; 3000 ppm ε-PL, after 5 weeks", "result": "<2.00E+00", "unit": "CFU/g"}, {"measurement": "Log Reduction", "setting": "Listeria monocytogenes; 3000 ppm ε-PL, after 5 weeks", "result": ">8.12"}, {"measurement": "average Log Value", "setting": "Listeria monocytogenes; 3000 ppm ε-PL, after 7 weeks", "result": "<1.08"}]}]}
